The target in data set [1] is T1, DWV 3C protease (GST-DWV 3C^pro) (Deformed wing virus, UniProt Q8B3M2).
T1 construct: cDNA corresponding to amino acid 2094–2353 of DWV polyprotein; made in house; host or cells: E. coli BL21
The experiment in a line: FRET protease assay of GST-DWV 3C^pro with fluorogenic peptide substrate. Format: biochemical. Particulars: for IC50: pH 6.0, 33°C, n = 3, read-out: IC50 of DWV 3C^pro inhibitors; for Dependence of DWV 3C^pro inhibition on dithiothreitol: absence vs presence of 2 mM DTT. How it is done: Dabcyl-PVQAKPEMDNPNPGE-Edans derived from the cleavage site between L-protein and VP2 (underlined, 205-218 of polyprotein) was used as a peptide substrate to measure the protease activity. E was added to the C-terminus to link Edans. FRET experiments were performed with Varioskan LUX multimode microplate reader (Thermo Fisher). We measured 100 μL of reaction mixture with 50 mM Citrate buffer, pH 6.0, 150 mM NaCl, 2 mM EDTA, 2 mM DTT containing 1 μM GST-DWV 3C^pro and 20 μM fluorogenic peptide substrate in a 96-well flat-bottom white microplate at 33°C. The relative fluorescence was measured using an excitation wavelength of 336 nm and by monitoring the emission at 490 nm every 3 min for 30 min. In order to determine the optimal reaction condition for GST-DWV 3C^pro, various pH values, temperatures, and DTT concentrations were used. To test the effect of DTT on the activity, the protein dialyzed against TNE buffer was used. To determine the velocity of product formation, we precalibrated the instrument with the free Edans standard in the presence of 20 μM Dabcyl to calculate the relationship between relative fluorescence and substrate concentration. We calculated the kinetic parameters, Km, Vmax, and catalytic efficiency (Kcat/Km) assuming Michaelis-Menten kinetics for the cleavage of peptide.
To identify the inhibitors for DWV 3C^pro, various concentrations of the tested compounds were added. To determine the inhibitory effects of the various compounds, we preincubated the compound and enzyme on ice for 10 min prior to addition of the peptide substrate. To analyze the effects of ebselen, disulfiram, and carmofur, we used the enzyme dialyzed against TNE buffer and carried out the reaction with or without DTT. We determined the initial velocities of the enzymatic reactions and fitted to a sigmoidal dose-response equation with nonlinear regression analysis using GraphPad Prism 9. The data from three independent assays were used to determine IC50 value of each compound.

Data set [2] concerns main protease of SARS-CoV-2. Particulars: by covalently modifying cysteine in the catalytic diad; cited from earlier work.
For data set [3], the system named is DWV. The experiment in a line: DWV replication (RdRP precursor synthesis, Western blot) in DWV-infected honey bee pupal head cells. Format: cell-based, Deformed wing virus (DWV). As for the experimental part: Honey bee pupae with pale/pink eyes were collected from a mite-free colony. They were surface sterilized by washing with 10% bleach followed by sterile PBS three times (5 min for each wash). Heads from the pupae were dissected and homogenized seven times with 1 mL Grace culture medium using Dounce homogenizer (Loose fitting). The homogenate was then filtered through a cell strainer (Falcon) and the number of cells was counted. 10^6 cells were suspended in 100 μL of Grace medium containing 10% FBS, antibiotics (penicillin and streptomycin), and ebselen at the indicated concentration with or without DWV (MOI: 10) in 24-well plate at 33°C for 1 h. DWV used for this study was one of type A strains (VD-B7) we previously isolated from Varroa mite-infested pupa ([8]). […]
After DWV infection, the pupal head cells were collected by centrifugation, and then homogenized with 150 μL of RIPA buffer (20 mM Tris-HCl, pH 7.5, 150 mM NaCl, 1% NP-40, 0.5% sodium deoxycholate, 0.1% SDS) containing protease inhibitor cocktail. After centrifugation of the homogenate, the protein concentration of supernatant was measured using Enhanced BCA protein assay kit. The cell lysate with 20 μg of protein was analyzed by Western blot for each sample. […] Band intensity of 97 kDa RdRP precursor was measured by image-J.

Data set [4] concerns honey bee pupal head cells. The experiment in a line: Cell viability of honey bee pupal head cells (CellTiter-Lumi, intracellular ATP). Format: cell-based, honey bee (Apis mellifera). As for the experimental part:
Honey bee pupal head cells were prepared as described above and 100 μL cell suspension (2 × 10^6/mL) was inoculated to each well in 96-well plate. The cells were cultured in the presence of either DMSO or ebselen at the indicated concentrations at 33°C for 16 h. The cultured plate was first incubated at room temperature for 10 min followed by adding 100 μL of reagent solution (CellTiter-Lumi Luminescent Cell Viability assay kit, Beyotime). The plate was shaken at room temperature for 2 min to promote cell lysis, and then further incubated for 10 min to stabilize the chemiluminescence signal. The signal was detected using Varioskan LUX multimode microplate reader and depends on intracellular ATP level, thus the relative viability of cells.

The test system of data set [5] is DWV. On the set-up: method as in PMID 33643262. Particulars: based on the synthesis of RdRP, cited from earlier work.
Data set [6] concerns human rhinovirus 3C^pro. On the set-up: method as in PMID 21813612, PMID 27645381, PMID 10197965. Particulars: cited from earlier work.
In data set [7] the test system is enterovirus 3C^pro. On the set-up: method as in PMID 21813612, PMID 27645381, PMID 10197965. Conditions: cited from earlier work.
Where [8] appears, read: tested in the presence of 2 mM DTT, 1 μM enzyme, 20 μM peptide substrate.
[9] abbreviates: compounds tested with or without 2 mM DTT and only effective without DTT.
Where [10] appears, read: peptide substrate 2-20 μM, Michaelis-Menten.

Data on nine compounds can be found in publication PMC9241925, “DWV 3C Protease Uncovers the Diverse Catalytic Triad in Insect RNA Viruses” (Microbiology Spectrum, 2022).

Where two headings read alike, the source gives them in different places. Primed or numbered codes have the meaning given here. *: point of attachment. Dabcyl′ = CN(C)c1ccc(/N=N/c2ccc(C(=O)*)cc2)cc1; EDANS = O=S(=O)(O)c1cccc2c(NCCN*)cccc12

T1 sequence (Q8B3M2 2094-2353): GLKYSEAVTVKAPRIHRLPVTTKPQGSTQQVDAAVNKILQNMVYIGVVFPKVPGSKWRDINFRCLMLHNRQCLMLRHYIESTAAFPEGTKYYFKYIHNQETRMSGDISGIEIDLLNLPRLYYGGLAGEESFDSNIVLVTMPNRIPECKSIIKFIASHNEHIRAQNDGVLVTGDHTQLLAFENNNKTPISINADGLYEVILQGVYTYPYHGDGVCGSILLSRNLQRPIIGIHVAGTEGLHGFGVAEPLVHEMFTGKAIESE

Consider `O=C1C(Cl)=C(Cl)C(=O)c2ncccc21` [6,7-dichloroquinoline-5,8-dione], for which the half-maximal inhibitory concentration (IC50) in data set [1] (setting [8]) stood at 129 ± 1.8 µM.

For `CCCCCCNC(=O)n1cc(F)c(=O)[nH]c1=O` [Carmofur], the “Dependence of DWV 3C^pro inhibition on dithiothreitol” value (“Dependence of DWV 3C^pro inhibition” below) in data set [1] is reported as “only effective without dithiothreitol”. In data set [1] (setting [9]), the IC50 is 127 ± 6.2 µM. Besides, the “Inhibition of the main protease of SARS-CoV-2” value (shortened to “Inhibition … of SARS-CoV-2”) in data set [2] was “inhibit the main protease of SARS-CoV-2”.

`CCN(CC)C(=S)SSC(=S)N(CC)CC` [Disulfiram]: the “Dependence of DWV 3C^pro inhibition” value in data set [1] is “only effective without dithiothreitol”. The 50% inhibitory concentration (IC50) in data set [1] (setting [9]) was 35.6 ± 0.8 µM. Also, in data set [2], the “Inhibition … of SARS-CoV-2” value was “inhibit the main protease of SARS-CoV-2”.

Regarding `O=c1c2ccccc2[se]n1-c1ccccc1` [Ebselen], in data set [1], the “Dependence of DWV 3C^pro inhibition” value is “only effective without dithiothreitol”. The IC50 in data set [1] (setting [9]) worked out at 1.66 ± 0.02 µM. Besides, in data set [2], the “Inhibition … of SARS-CoV-2” value was “inhibit the main protease of SARS-CoV-2”. In data set [3] (DWV-infected pupal head cells, MOI 10, 33°C, 16 h, increasing ebselen concentrations vs DMSO), the “Synthesis of the 97 kDa precursor of RdRP and 3C^pro” value is “decreased the synthesis of the 97 kDa precursor of RdRP and 3C^pro in a concentration-dependent manner”. Moreover, in data set [3] (cultured honey bee cells), the “DWV replication in honey bee cells” value is reported as “inhibited DWV replication”. In addition, in data set [4], the “Toxicity to honey bee cells” value is recorded as “toxic to the cells”. The “Cell viability (luminescence) vs DMSO” value in data set [4] (30 μM, 16 h, 33°C) is listed as “no significant difference”. Moreover, the Cell viability entry in data set [4] (100 and 250 μM, 16 h, 33°C, vs DMSO) is “cell viability was reduced”.

For the compound `CC(C)C[C@H](NC(=O)OCc1ccccc1)C(=O)N[C@@H](CC1CCNC1=O)C(O)S(=O)(=O)O` (some centres unmarked) [GC376], the half-maximal inhibitory concentration (IC50) in data set [1] (setting [8]) came to 55.2 ± 4 µM.

Turning to `O=c1c(O)c(-c2ccc(O)c(O)c2)oc2cc(O)cc(O)c12` [Quercetin], the half-inhibitory concentration (IC50) in data set [1] (setting [8]) worked out at 430 ± 62.8 µM. In data set [5], the “DWV replication in honey bee pupal cells” value was “inhibited DWV replication”.

In the case of `CCOC(=O)/C=C/[C@H](C[C@@H]1CCNC1=O)NC(=O)[C@@H](CC(=O)[C@@H](NC(=O)c1cc(C)on1)C(C)C)Cc1ccc(F)cc1` [Rupintrivir], the concentration for half-maximal inhibition (IC50) in data set [1] (setting [8]) was 0.36 ± 0.03 µM; in data set [6] it was 0.005 µM; in data set [7], 1.65 to 7.3 µM. The figures for the “DWV replication in honey bee pupal cells” value in data set [5] and in data set [5] (listed as rupintrivir) were “inhibited DWV replication” and “suppresses DWV replication”, respectively.

Take `[Zn]` [Zinc, zinc]: the IC50 in data set [1] (setting [8]) amounted to 15200 ± 422 µM.

In the case of “PVQAKPEMDNPNPGE ({Dabcyl′}-PVQAKPEMDNPNPGE-{EDANS}) [Dabcyl-PVQAKPEMDNPNPGE-Edans, 15 amino acid fluorogenic FRET peptide substrate with the DWV L-protein/VP2 cleavage site]”, in data set [1] (setting [10]), the Km is 4.23 ± 0.256 µM and the maximal velocity (Vmax) was 0.2538 ± 0.0067 µM/min.
